Source: patent EP0070171A1, “Novel piperidine derivatives, processes for preparation thereof and pharmaceutical compositions containing same” (KYOWA HAKKO KOGYO CO., LTD, priority 1981, dated 1983)

What was measured:
[1] = system: spontaneously hypertensive rats; test: Hypotensive activity in spontaneously hypertensive rats (Experiment 1, tail artery plethysmography); type: in vivo; conditions: maximum reduction after administration versus pressure before administration; oral, 3 mg/100 g body weight, suspended in 0.3% (W/V) CMC; SHR 15 weeks old, five rats per group
Description: This experiment was conducted according to the procedure described in "Spontaneously Hypertensive Rats (SHR) guidelines for Breeding, Care and Use" (published by SHR Conference) (1976) p.ll.
Five spontaneously hypertensive rats (15 weeks old, 180 mmHg or more in blood pressure) were used as one group. A test compound was suspended in 0.3% (W/V) CMC aqueous solution in a concentration of 3 mg/ml, and orally administered to the rats in a dose of 3 mg/100 g body weight. Changes in blood pressure were measured according to the method of tail artery plethysmography (see the literature cited above). The maximum reduction (mmHg) in blood pressure after the administration on the basis of the pressure before the administration is shown in Table 6.

[2] = Acute oral toxicity in mice (Experiment 2, deaths counted after 7 days); conditions: mouse, in vivo, in aqueous physiological sodium chloride, doses 300 mg/kg or further 200, 100 or 1000 mg/kg, observation for 7 days, three or four mice per group, read-out: Dose of half being died
Description: Three or four male dd-strain mice (weight 18-20g) were used as one group.
Each of the compounds was added to aqueous physiological sodium chloride, and the mixture was orally administered to the mice in a dose of 300 mg/kg or further 200, 100 or 1000 mg/kg. After the observation for 7 days, the number of deaths were counted.

| Compound | Reduction in blood pressure (mmHg) [1] [mmHg] | LD50 at 168 h [2] [mg/kg] |
| --- | --- | --- |
| COc1ccc([C@H](O)[C@H](C)N2CCC3(CC2)OC(=O)Nc2ccccc23)cc1OC (relative stereo) [Compound 25, threo-l'-[2-(3,4-dimethoxyphenyl)-2-hydroxy-1-methylethyl]-(2-oxo-3,4-dihydro-2H-1,3-benzoxazine-4-spiro-4'-piperidine)] | 90 | – |
| COc1ccc([C@@H](O)[C@H](C)N2CCC3(CC2)OC(=O)Nc2ccccc23)cc1OC (relative stereo) [Compound 26, erythro-l'-[2-(3,4-dimethoxyphenyl)-2-hydroxy-1-methylethyl]-(2-oxo-3,4-dihydro-2H-1,3-benzo-xazine-4-spiro-4'-piperidine)] | 66 | – |
| COc1cc([C@H](O)[C@H](C)N2CCC3(CC2)OC(=O)Nc2ccccc23)cc(OC)c1OC (relative stereo) [Compound 28] | 70 | – |
| COc1cc(OC)c([C@@H](O)[C@H](C)N2CCC3(CC2)OC(=O)Nc2ccccc23)cc1OC (relative stereo) [Compound 31, erythro-l'-[2-(3,4,6-trimethoxyphenyl)-2-hydroxy-1-methylethyl]-(2-oxo-3,4-dihydro-2H-1,3-benzo-xazine-4-spiro-4'-piperidine)] | 75 | – |
| O=C1Nc2ccccc2C2(CCN(CC(O)c3ccccc3)CC2)O1 (stereo not shown) [Compound 2, l'-(2-phenyl-2-hydroxyethyl)-(2-oxo-3,4-dihydro-2H-1,3-benzoxazine-4-spiro-4'-piperidine)] | 46.3 | > 300 |
| COc1ccc(C(O)CN2CCC3(CC2)OC(=O)Nc2ccccc23)cc1OC (stereo not shown) [Compound 4, l'-[2-(3,4-dimethoxyphenyl)-2-hydroxyethyl]-(2-oxo-3,4-dihydro-2H-1,3-benzoxazine-4-spiro-4'-piperidine)] | 95.0 | > 1000 |
| O=C1Nc2ccc(Cl)cc2C2(CCN(CC(O)c3ccccc3)CC2)O1 (stereo not shown) [Compound 6, l'-(2-phenyl-2-hydroxyethyl)-(6-chloro-2-oxo-3,4-dihydro-2H-1,3-benzoxazine-4-spiro-4'-piperidine)] | 66.3 | – |
| O=C1Nc2ccc(Cl)cc2C2(CCN(CC(O)c3ccc(Cl)cc3)CC2)O1 (stereo not shown) [Compound 8, l'-[2-(4-chlorophenyl)-2-hydroxyethyl]-(6-chloro-2-oxo-3,4-dihydro-2H-1,3-benzoxazine-4-spiro-4'-piperidine)] | 67.5 | > 300 |
| O=C1Nc2ccccc2C2(CCN(CC(O)c3ccc(Cl)cc3)CC2)O1 (stereo not shown) [Compound 9] | 43.7 | > 300 |
| CN1C(=O)Nc2ccccc2C12CCN(CC(O)c1ccc(Cl)cc1)CC2 (stereo not shown) [Compound 10] | 20.0 | – |
| CN1C(=O)Nc2ccccc2C12CCN(CC(O)c1ccccc1)CC2 (stereo not shown) [Compound 11, l'-(2-phenyl-2-hydroxyethyl)-(3-methyl-3,4-dihydro-2(lH)-quinazolinone-4-spiro-4'-piperidine)] | 47.5 | 200 |
| COc1ccc(C(O)CN2CCC3(CC2)c2ccccc2NC(=O)N3C)cc1OC (stereo not shown) [Compound 12, l'-[2-(3,4-dimethoxyphenyl)-2-hydroxyethyl]-[3-methyl-3,4-dihydro-2(1H)-quinazolinone-4-spiro-4'-piperidine]] | 35.0 | 100 to 300 |
| COc1cc(C(O)CN2CCC3(CC2)OC(=O)Nc2ccccc23)cc(OC)c1OC (stereo not shown) [Compound 32, l'-[2-(3,4,5-trimethoxyphenyl)-2-hydroxyethyl]-(2-oxo-3,4-dihydro-2H-1,3-benzoxazine-4-spiro-4'-piperidine)] | 79 | – |
